Data as given in ChEMBL document CHEMBL1201861, “Genomics of Drug Sensitity in Cancer screening data, Wellcome Trust Sanger Institute”.

Experiments:
Test in all cases: cells
Settings in all cases: Homo sapiens
UACC-62 = format: functional, cell-based;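 note: growth inhibition of human UACC-62 cells, read out by a cell viability assay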
Description: SANGER: Inhibition of human UACC-62 cell growth in a cell viability assay.

ME-180 = format: functional, cell-based;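 note: cell viability assay measuring growth inhibition of ME-180 cells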
Description: SANGER: Inhibition of human ME-180 cell growth in a cell viability assay.

G-401 = format: functional, cell-based
Description: SANGER: Inhibition of human G-401 cell growth in a cell viability assay.

UMUC3 = format: functional, cell-based;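 note: growth inhibition of human UM-UC-3 cells, read out with a cell viability assay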
Description: SANGER: Inhibition of human UM-UC-3 cell growth in a cell viability assay.

DU-145 = format: functional, cell-based
Description: SANGER: Inhibition of human DU-145 cell growth in a cell viability assay.

YKG-1 = format: functional, cell-based;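 note: cell growth inhibition, read out with a viability assay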
Description: SANGER: Inhibition of human YKG-1 cell growth in a cell viability assay.

HCT-116 = format: functional, cell-based
Description: SANGER: Inhibition of human HCT-116 cell growth in a cell viability assay.

EFM-19 = format: functional, cell-based;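 note: growth inhibition of human EFM-19 cells, measured in a cell viability assay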
Description: SANGER: Inhibition of human EFM-19 cell growth in a cell viability assay.

SCC-9 = format: functional, cell-based;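 note: Read-out is a cell viability assay, with values giving inhibition of cell growth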
Description: SANGER: Inhibition of human SCC-9 cell growth in a cell viability assay.

HOP-92 = format: functional, cell-based;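 note: cell viability readout, with IC50 reflecting inhibition of HOP-92 cell growth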
Description: SANGER: Inhibition of human HOP-92 cell growth in a cell viability assay.

SW626 = format: functional, cell-based;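 note: growth inhibition of SW626 cells, measured with a cell viability assay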
Description: SANGER: Inhibition of human SW626 cell growth in a cell viability assay.

MEL-HO = format: functional, cell-based
Description: SANGER: Inhibition of human MEL-HO cell growth in a cell viability assay.

KYSE-410 = format: functional, cell-based;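 note: growth inhibition of KYSE-410 cells, measured through a cell viability readout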
Description: SANGER: Inhibition of human KYSE-410 cell growth in a cell viability assay.

SF-295 = format: functional, cell-based;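 note: growth inhibition of SF-295 cells, read out with a cell viability assay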
Description: SANGER: Inhibition of human SF295 cell growth in a cell viability assay.

GCT = format: functional, cell-based;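 note: GCT cell line proliferation inhibition, read out with a cell viability assay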
Description: SANGER: Inhibition of human GCT cell growth in a cell viability assay.

ChaGo-K-1 = format: functional, cell-based;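 note: growth inhibition of ChaGo-K-1 cells, read out with a cell viability assay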
Description: SANGER: Inhibition of human ChaGo-K-1 cell growth in a cell viability assay.

HuO-3N1 = format: functional, cell-based;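 note: cell viability readout used to measure how strongly compounds suppress proliferation of human HuO-3N1 cells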
Description: SANGER: Inhibition of human HuO-3N1 cell growth in a cell viability assay.

HCT-15 = format: functional, cell-based;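 note: cell viability readout, IC50 reflecting suppression of HCT-15 cell growth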
Description: SANGER: Inhibition of human HCT-15 cell growth in a cell viability assay.

MKN-1 = format: functional, cell-based;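 note: growth inhibition of human MKN1 cells, read out by a cell viability measurement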
Description: SANGER: Inhibition of human MKN1 cell growth in a cell viability assay.

PANC-08-13 = format: functional, cell-based;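 note: cell growth inhibition, measured with a cell viability assay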
Description: SANGER: Inhibition of human PANC-08-13 cell growth in a cell viability assay.

MDA-MB-361 = format: functional, cell-based
SK-MEL-28 = format: functional, cell-based;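 note: growth inhibition of human SK-MEL-28 cells, read out with a cell viability assay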
Description: SANGER: Inhibition of human SK-MEL-28 cell growth in a cell viability assay.

SW780 = format: functional, cell-based;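 note: growth inhibition of the cells, read out with a cell viability assay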
Description: SANGER: Inhibition of human SW780 cell growth in a cell viability assay.

RO82-W-1 = format: functional, cell-based;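 note: growth inhibition of human RO82-W-1 cells, measured with a cell viability assay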
Description: SANGER: Inhibition of human RO82-W-1 cell growth in a cell viability assay.

U2OS = format: functional, cell-based, U-2-OS;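 note: growth inhibition of human U-2-OS cells, determined with a cell viability assay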
Description: SANGER: Inhibition of human U-2-OS cell growth in a cell viability assay.

NCI-H2342 = format: functional, cell-based;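 note: growth inhibition of the cancer cell line, determined with a cell viability assay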
Description: SANGER: Inhibition of human NCI-H2342 cell growth in a cell viability assay.

SW837 = format: functional, cell-based;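 note: growth inhibition of SW837 cells, determined with a cell viability assay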
Description: SANGER: Inhibition of human SW837 cell growth in a cell viability assay.

H4 = format: functional, cell-based
Description: SANGER: Inhibition of human H4 cell growth in a cell viability assay.

GMS-10 = format: functional, cell-based;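 note: growth inhibition of GMS-10 cells, read out as cell viability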
Description: SANGER: Inhibition of human GMS-10 cell growth in a cell viability assay.

SW1088 = format: functional, cell-based;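 note: growth inhibition of human SW1088 cells, read out by a cell viability assay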
Description: SANGER: Inhibition of human SW1088 cell growth in a cell viability assay.

NCI-H810 = format: functional, cell-based;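 note: IC50 reflects inhibition of cancer cell line growth, read out with a cell viability assay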
Description: SANGER: Inhibition of human NCI-H810 cell growth in a cell viability assay.

RT-112 = format: functional, cell-based
Description: SANGER: Inhibition of human RT-112 cell growth in a cell viability assay.

HCC1419 = format: functional, cell-based;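 note: growth inhibition of human HCC1419 cells, read out as cell viability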
Description: SANGER: Inhibition of human HCC1419 cell growth in a cell viability assay.

NCI-H2052 = format: functional, cell-based;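 note: growth inhibition of NCI-H2052 cells, read out with a cell viability assay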
Description: SANGER: Inhibition of human NCI-H2052 cell growth in a cell viability assay.

EFO-27 = format: functional, cell-based;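 note: growth inhibition of EFO-27 cells, read out with a cell viability assay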
Description: SANGER: Inhibition of human EFO-27 cell growth in a cell viability assay.

SW756 = format: functional, cell-based;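 note: growth inhibition of human SW756 cells, read out with a cell viability assay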
Description: SANGER: Inhibition of human SW756 cell growth in a cell viability assay.

NCI-H292 = format: functional, cell-based;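 note: growth inhibition of NCI-H292 cells, read out with a cell viability assay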
Description: SANGER: Inhibition of human NCI-H292 cell growth in a cell viability assay.

SK-MEL3 = format: functional, cell-based, SK-MEL-3;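 note: growth inhibition of human SK-MEL-3 cells, read out with a cell viability assay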
Description: SANGER: Inhibition of human SK-MEL-3 cell growth in a cell viability assay.

SW48 = format: functional, cell-based;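 note: growth inhibition of SW48 cells, read out with a cell viability assay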
Description: SANGER: Inhibition of human SW48 cell growth in a cell viability assay.

CAL-27 = format: functional, cell-based;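 note: Viability-based readout, IC50 reflecting inhibition of CAL-27 cell growth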
Description: SANGER: Inhibition of human CAL-27 cell growth in a cell viability assay.

NCI-H28 = format: functional, cell-based;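 note: growth inhibition of human NCI-H28 cells, read out as cell viability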
Description: SANGER: Inhibition of human NCI-H28 cell growth in a cell viability assay.

8505C = format: functional, cell-based
Description: SANGER: Inhibition of human 8505C cell growth in a cell viability assay.

HT-3 = format: functional, cell-based;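 note: growth inhibition measured with a cell viability readout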
Description: SANGER: Inhibition of human HT-3 cell growth in a cell viability assay.

BPH-1 = format: functional, cell-based;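 note: cell viability assay measuring growth inhibition of human BPH-1 cells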
Description: SANGER: Inhibition of human BPH-1 cell growth in a cell viability assay.

COR-L23 = format: functional, cell-based;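 note: cell viability assay measuring how strongly compounds suppress growth of COR-L23 cells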
Description: SANGER: Inhibition of human COR-L23 cell growth in a cell viability assay.

Cn1cc(/C=C2\C(=O)Nc3cccnc32)c2ccccc21
IC50 (UACC-62): > 2000 nM | IC50 (ME-180): > 2000 nM | IC50 (G-401): > 2000 nM | IC50 (UMUC3): > 2000 nM | IC50 (DU-145): > 2000 nM | IC50 (YKG-1): > 2000 nM | IC50 (HCT-116): > 2000 nM | IC50 (EFM-19): > 2000 nM | IC50 (SCC-9): > 2000 nM | IC50 (HOP-92): > 2000 nM | IC50 (SW626): > 2000 nM | IC50 (MEL-HO): > 2000 nM | IC50 (KYSE-410): > 2000 nM | IC50 (SF-295): > 2000 nM | IC50 (GCT): > 2000 nM | IC50 (ChaGo-K-1): > 2000 nM | IC50 (HuO-3N1): > 2000 nM | IC50 (HCT-15): > 2000 nM | IC50 (MKN-1): > 2000 nM | IC50 (PANC-08-13): > 2000 nM | IC50 (MDA-MB-361): > 2000 nM | IC50 (SK-MEL-28): > 2000 nM | IC50 (SW780): > 2000 nM | IC50 (RO82-W-1): > 2000 nM | IC50 (U2OS): > 2000 nM | IC50 (NCI-H2342): > 2000 nM | IC50 (SW837): > 2000 nM | IC50 (H4): > 2000 nM | IC50 (GMS-10): > 2000 nM | IC50 (SW1088): > 2000 nM | IC50 (NCI-H810): > 2000 nM | IC50 (RT-112): > 2000 nM | IC50 (HCC1419): > 2000 nM | IC50 (NCI-H2052): > 2000 nM | IC50 (EFO-27): > 2000 nM | IC50 (SW756): 440 nM | IC50 (NCI-H292): > 2000 nM | IC50 (SK-MEL3): > 2000 nM | IC50 (SW48): > 2000 nM | IC50 (CAL-27): > 2000 nM | IC50 (NCI-H28): > 2000 nM | IC50 (8505C): > 2000 nM | IC50 (HT-3): > 2000 nM | IC50 (BPH-1): > 2000 nM | IC50 (COR-L23): > 2000 nM
